These results are taken from paper PMC5394417, “Investigating the molecular mechanism of positive and negative allosteric modulators in the calcium-sensing receptor dimer” (Scientific Reports, 2017).

In the assay the target is T1, HA-F684A CaSR mutant (Rattus norvegicus, UniProt P48442, F684A).
T1 construct: mGluR5 signal peptide (N); expressed in transfected cells; host or cells: HEK293T
T1 sequence (P48442 20-1079 F684A): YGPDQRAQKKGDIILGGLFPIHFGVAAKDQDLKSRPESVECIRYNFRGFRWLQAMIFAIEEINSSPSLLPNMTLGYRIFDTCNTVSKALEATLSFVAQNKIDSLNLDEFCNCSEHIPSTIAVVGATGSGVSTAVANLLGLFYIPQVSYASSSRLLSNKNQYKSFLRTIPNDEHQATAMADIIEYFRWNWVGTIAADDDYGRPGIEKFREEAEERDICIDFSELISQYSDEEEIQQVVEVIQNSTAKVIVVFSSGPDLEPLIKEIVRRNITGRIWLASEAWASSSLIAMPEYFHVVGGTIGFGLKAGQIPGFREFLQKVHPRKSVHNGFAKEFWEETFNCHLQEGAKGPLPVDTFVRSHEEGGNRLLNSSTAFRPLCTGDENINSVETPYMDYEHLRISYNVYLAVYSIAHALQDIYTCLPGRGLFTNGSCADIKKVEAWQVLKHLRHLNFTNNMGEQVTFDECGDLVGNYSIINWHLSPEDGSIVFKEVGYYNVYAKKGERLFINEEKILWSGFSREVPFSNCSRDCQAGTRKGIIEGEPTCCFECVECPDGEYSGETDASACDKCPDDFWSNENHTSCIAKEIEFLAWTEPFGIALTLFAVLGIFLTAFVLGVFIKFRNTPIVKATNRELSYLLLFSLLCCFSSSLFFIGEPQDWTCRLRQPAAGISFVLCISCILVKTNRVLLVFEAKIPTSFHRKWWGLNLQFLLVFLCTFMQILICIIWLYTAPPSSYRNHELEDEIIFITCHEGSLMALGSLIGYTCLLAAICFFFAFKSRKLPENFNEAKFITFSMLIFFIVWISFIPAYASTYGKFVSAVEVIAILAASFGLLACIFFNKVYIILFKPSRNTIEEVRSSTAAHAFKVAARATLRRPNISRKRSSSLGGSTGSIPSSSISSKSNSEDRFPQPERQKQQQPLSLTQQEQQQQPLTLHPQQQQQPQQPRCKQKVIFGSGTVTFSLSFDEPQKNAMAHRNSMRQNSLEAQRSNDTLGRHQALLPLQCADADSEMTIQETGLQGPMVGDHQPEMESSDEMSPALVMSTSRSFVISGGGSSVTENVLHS
As to the kind of experiment: IP-One assay, HEK293T transiently transfected. In kind it is cell-based.

The structures appear in SMILES notation.

With `[Ca+2]` [Ca^2+], the EC50 is 6.6 mM (Ca^2+ alone), 2.89 mM (Ca^2+ with 1 μM NPS R-568) and 8.17 mM (Ca^2+ with 5 μM NPS 2143). Also, the “pEC50 ± S.E.M.” value reads like this: (Ca^2+ alone) 2.18 ± 0.01; (Ca^2+ with 1 μM NPS R-568) 2.54 ± 0.02; (Ca^2+ with 5 μM NPS 2143) 2.09 ± 0.004. In addition, the “Max ± S.E.M.” value runs as follows: (Ca^2+ alone, normalized to maximum response of WT CaSR) 97 ± 3.4%; (Ca^2+ with 1 μM NPS R-568, normalized to maximum response with Ca^2+ alone for the construct) 99 ± 11%; (Ca^2+ with 5 μM NPS 2143, normalized to maximum response with Ca^2+ alone for the construct) 70 ± 8.1%.

As a reminder, the EC50 is the concentration at which the effect is half-maximal.
